Tests used:
human soluble ENPP1 [1] = molecular target: T1, human soluble ENPP1 (Homo sapiens, UniProt P22413); experiment: ENPP1 activity assay using p-Nitrophenyl-5′-TMP as a substrate; type: biochemical
T1 construct: 20 ng of human soluble ENPP1
T1 sequence (P22413 103-925 limits assumed): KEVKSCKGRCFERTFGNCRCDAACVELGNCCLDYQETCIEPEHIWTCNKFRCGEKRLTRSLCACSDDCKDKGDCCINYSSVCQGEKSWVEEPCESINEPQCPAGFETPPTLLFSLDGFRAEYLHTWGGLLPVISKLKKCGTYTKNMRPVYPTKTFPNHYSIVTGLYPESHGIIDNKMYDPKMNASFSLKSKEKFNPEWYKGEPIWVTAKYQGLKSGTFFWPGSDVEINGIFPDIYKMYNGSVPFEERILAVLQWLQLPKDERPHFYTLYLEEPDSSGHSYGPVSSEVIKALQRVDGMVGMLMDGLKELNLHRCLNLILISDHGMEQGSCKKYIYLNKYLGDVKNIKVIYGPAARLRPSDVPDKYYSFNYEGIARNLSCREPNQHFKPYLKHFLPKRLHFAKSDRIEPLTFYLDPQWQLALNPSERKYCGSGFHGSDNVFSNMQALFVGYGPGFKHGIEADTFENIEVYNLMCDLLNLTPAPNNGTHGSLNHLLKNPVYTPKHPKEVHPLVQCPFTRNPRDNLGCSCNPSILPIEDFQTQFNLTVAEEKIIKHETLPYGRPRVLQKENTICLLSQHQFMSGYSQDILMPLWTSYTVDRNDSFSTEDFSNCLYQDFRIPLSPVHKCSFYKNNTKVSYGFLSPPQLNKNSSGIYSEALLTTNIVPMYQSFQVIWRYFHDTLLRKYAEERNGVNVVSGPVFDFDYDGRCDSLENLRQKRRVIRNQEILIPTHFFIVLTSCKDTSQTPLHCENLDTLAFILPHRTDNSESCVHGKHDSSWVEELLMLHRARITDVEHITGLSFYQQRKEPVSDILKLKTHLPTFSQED
How it was run: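 Percent inhibition, set against uninhibited-enzyme and blank wells, was fitted to a four-parameter variable-slope model for IC50. Chromogenic read-out was p-nitrophenol released from TMP-pNP, added as a 2 mM […] solution for 1 h at RT. Before that, 20 ng soluble ENPP1 sat 30 min with compound.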

human soluble ENPP1 [2] = molecular target: T1, human soluble ENPP1; experiment: ENPP1 activity assay using p-Nitrophenyl-5′-AMP as a substrate; type: biochemical
How it was run: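 Absorbance at 405 nm tracks p-nitrophenol from AMP-pNP hydrolysis after 1 h at room temperature, substrate added as 3 mM (2× final) following 30 min enzyme–compound preincubation. Enzyme: 35 ng human soluble ENPP1. IC50 fitted (variable-slope four-parameter) from percent inhibition normalized to max and blank.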

ENPP-1, MDA-MB-231 cells = molecular target: T2, ENPP-1, MDA-MB-231 cells (Homo sapiens, UniProt P22413); experiment: cell-based; details: for inhibition at 20 µM: MDA-MB-231, read-out: % Inhibition (at 20 μM)
T2 sequence (P22413 1-925): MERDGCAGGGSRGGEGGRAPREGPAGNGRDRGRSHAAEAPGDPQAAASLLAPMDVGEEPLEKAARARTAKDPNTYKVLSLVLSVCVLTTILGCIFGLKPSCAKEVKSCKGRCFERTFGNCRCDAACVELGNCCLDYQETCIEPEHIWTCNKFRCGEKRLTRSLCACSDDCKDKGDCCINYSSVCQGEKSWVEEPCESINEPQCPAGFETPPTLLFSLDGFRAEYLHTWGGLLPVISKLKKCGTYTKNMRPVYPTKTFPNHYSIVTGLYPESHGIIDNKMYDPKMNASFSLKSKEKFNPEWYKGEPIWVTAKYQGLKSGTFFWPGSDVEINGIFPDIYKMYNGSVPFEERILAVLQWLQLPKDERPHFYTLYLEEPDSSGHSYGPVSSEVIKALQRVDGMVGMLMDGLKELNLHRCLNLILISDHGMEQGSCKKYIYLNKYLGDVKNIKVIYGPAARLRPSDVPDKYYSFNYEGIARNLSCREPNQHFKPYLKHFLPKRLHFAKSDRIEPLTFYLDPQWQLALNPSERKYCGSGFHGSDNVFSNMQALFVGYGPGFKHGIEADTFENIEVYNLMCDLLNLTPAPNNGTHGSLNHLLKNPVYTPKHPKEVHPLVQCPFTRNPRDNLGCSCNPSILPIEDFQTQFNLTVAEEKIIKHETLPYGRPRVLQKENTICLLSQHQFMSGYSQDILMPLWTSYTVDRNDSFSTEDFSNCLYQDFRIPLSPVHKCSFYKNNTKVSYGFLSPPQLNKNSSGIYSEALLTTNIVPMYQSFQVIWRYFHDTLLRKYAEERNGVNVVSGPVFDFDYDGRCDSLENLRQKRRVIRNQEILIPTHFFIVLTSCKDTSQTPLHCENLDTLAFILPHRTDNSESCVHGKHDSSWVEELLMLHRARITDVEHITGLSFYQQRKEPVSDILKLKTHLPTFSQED

[3] = tested on: cGAMP activated THP-1 cells; experiment: ENPP1 inhibitors screening on cGAMP activated THP-1 cells (IFN-β ELISA); type: cell-based; details: THP-1 cells with 2′3′-cGAMP, 24 hours, FIGS. 1A-1E
Experimental: THP-1 cells from bulk cultures were counted and suspended in RPMI 1640, 20% FBS, 2.5 mM L-alanyl-L-glutamine at a concentration of 5.5×10^6 cells/mL. The THP-1 cells were subsequently seeded into 96 well round bottom plates 180 μL/well (1×10^6 cells per well), incubated for 1 hour at 37° C., 5% CO2.
Test compounds were screened in triplicate on THP-1 cells at a final concentration of 10 μM. A working solutions at 0.2 mM. Each well contains 180 μL of THP-1 cell suspension, 10 μL (30 μM, 40 μM or 50 μM) 2′3′-cGAMP (InvivoGen, catalog #tlrl-nacga23) solution (600 μM, 800 μM or 1000 μM) and 10 μL test compound working solution. Incubate for 1 hour.
Vehicle control wells contain 2′3′-cGAMP at concentrations of […] and 50 μM without any test compound. Positive control, 2′3′-cGAMP or 2′,3′-cGAM(PS)2 (Rp/Sp) (InvivoGen, cat #tlrl-nacga2srs) at 40 μM and 80 μM (final concentration).
The final assay volume were 200 μL/well contains: 1) THP-1 cells=180 μL, 2) test compounds=10 μL, 3) 2′3′-cGAMP or 2′3′-cGAM(PS)2 (Rp/Sp) or vehicle control=10 μL.
After incubation for 24 hours at 37° C., 5% CO2, the supernatants were harvested at 200×g for 10 minutes. Cell culture supernatants were then transferred to a clean plate and stored at −80° C. until ready to analyze for IFN-β levels. The IFN-β levels in cell culture supernatants were determined by ELISA kits (PBL Assay Science, catalog #41410) according to the manufacturer's instructions.
The % increase measured for IFN-β in cells treated by the test compounds 12, 48, 89, 103 and 121 relative to that of untreated cells were tested (as shown in FIGS. 1A-1E).

ENPP-1, HEK293 cells = molecular target: T3, ENPP-1, HEK293 cells (Homo sapiens, UniProt P22413); experiment: Cellular enzymatic assay of ENPP-1 inhibitors using TMP-pNP as substrate, HEK 293 cells; type: cell-based; details: for inhibition at 20 µM: HEK293, read-out: Inhibition (at 20 μM)
T3 construct: ENPP-1 were mainly expressed on the surface of cell membrane; endogenous in cells; host or cells: HEK293
T3 sequence (P22413 1-925): T2 sequence (P22413 1-925)
Experimental: (§1) ENPP-1 were mainly expressed on the surface of cell membrane where it hydrolytes 2′3′-cGAMP to generate 5′-GMP and 5′-AMP. ENPP-1 also has the ability to hydrolyzes artificial phosphoric acid ester TMP-pNP to nucleotide-5′-monophosphate and p-nitrophcnol there, which is a chromogenic product.
(§2) 8 point of different concentrations of each inhibitor were prepared with the final assay concentrations starting at 20 μM. 3× series dilution by DMEM medium without FBS was applied. Prior to adding inhibitors, 75000 cells per well were incubated at 37° C., 5% CO2 in DMEM for 24 hours. After removing the supernatant medium, 50 μL inhibitor solution was added into each well with cultured cells and incubate at 37° C., 5% CO2 for 60 minutes.
(§3) The IC50 values for percent inhibition versus compound concentration are determined by fitting the inhibition curves using a four-parameter variable slope model in GraphPad Prism® 8.

ENPP-1, Saos-2 cells = molecular target: T4, ENPP-1, Saos-2 cells (Homo sapiens, UniProt P22413); experiment: Cellular enzymatic assay of ENPP-1 inhibitors using TMP-pNP as substrate, Saos-2 cells; type: cell-based; details: for inhibition at 20 µM: SAOS-2, read-out: % Inhibition (@20 μM)
T4 construct: ENPP-1 were mainly expressed on the surface of cell membrane; endogenous in cells; host or cells: Saos-2
T4 sequence (P22413 1-925): T2 sequence (P22413 1-925)
Experimental: as §1, §2, §3

[4] = Liver microsome stability, mouse; type: in vitro ADME
Experimental: (§4) Liver microsome assay was used to evaluate the metabolic stability of I-VI. The test article at the concentration of […] was incubated with 0.5 mg/mL liver microsome in the presence of NADPH and UDPGA as the co-factors for 0, 15, 30, 45 and 60 minutes. The incubation was carried out at 37° C. with 5% CO2 and saturating humidity. Disappearance of the test article was monitored by LC/MS/MS. the disappearance half-life (t1/2), intrinsic clearance and hepatic extraction ratio were determined.

[5] = Liver microsome stability, human; type: in vitro ADME; details: for Hepatic extraction ratio Re: Human liver microsome; for Half-life t1/2 (min): Human liver microsome 0.5 mg/mL, NADPH and UDPGA, 37° C.
Experimental: as §4

[6] = Mouse liver microsome 0.5 mg/mL, NADPH and UDPGA, 37° C.

Compound	IC50 (human soluble ENPP1 [1]) [nM]	IC50 (human soluble ENPP1 [2]) [nM]	IC50 (ENPP-1, MDA-MB-231 cells) [nM]	inhibition at 20 µM (ENPP-1, MDA-MB-231 cells) [%]	% increase measured for IFN-β relative to that of untreated cells [3]	IC50 (ENPP-1, HEK293 cells) [nM]	inhibition at 20 µM (ENPP-1, HEK293 cells) [%]	IC50 (ENPP-1, Saos-2 cells) [nM]	inhibition at 20 µM (ENPP-1, Saos-2 cells) [%]	Hepatic extraction ratio Re ([4]; Mouse liver microsome)	Half-life t1/2 (min) [4, 6]	Hepatic extraction ratio Re [5]	Half-life t1/2 (min) [5]	half-life ([4]; liver microsomes, Mouse liver microsome 0.5 mg/mL, NADPH and UDPGA, 37° C., read-out: Half-life t1/2) [min]	microsomal CLint ([4]; liver microsomes, Mouse liver microsome, read-out: Intrinsic clearance Cl′int, (μL/min/mg protein)) [µL/min/mg]
COc1ccc2c(ncc3[nH]c(=O)n(Cc4ccc(P(=O)(O)O)c(F)c4)c32)n1 [Compound 121, (2-fluoro-4-((7-methoxy-2-oxo-2,3-dihydro-1H-imidazo[4,5-c][1,8]naphthyridin-1-yl)methyl)phenyl)phosphonic acid]	9.4	31	8.2	91	potently increased the IFN-β levels at very low concentrations										
COc1ccc2c(ncc3[nH]c(=O)n(Cc4c(F)cc(S(N)(=O)=O)cc4F)c32)n1 [Compound 103, 3,5-difluoro-4-((7-methoxy-2-oxo-2,3-dihydro-1H-imidazo[4,5-c][1,8]naphthyridin-1-yl)methyl)benzenesulfonamide]	0.09	0.06	34	87	potently increased the IFN-β levels at very low concentrations										
COc1ccc2c(c1)ncc1[nH]c(=O)n(Cc3ccc(S(N)(=O)=O)cc3)c12 [Compound 35, 4-((7-methoxy-2-oxo-2,3-dihydro-1H-imidazo[4,5-c]quinolin-1-yl)methyl)benzenesulfonamide]	0.37	35	1500	73		3400	51	5600	76	0	∞	0	∞		
COc1cc2ncc3[nH]c(=O)n(Cc4ccc(S(N)(=O)=O)cc4)c3c2cc1OC [Compound 1, 4-((7,8-dimethoxy-2-oxo-2,3-dihydro-1H-imidazo[4,5-c]quinolin-1-yl)methyl)benzenesulfonamide]	1.7	5.9	2900	50			19		32	0	∞				
COc1cc2ncc3ncn(Cc4ccc(S(N)(=O)=O)nc4)c3c2cc1OC [Compound 10, 5-((7,8-dimethoxy-1H-imidazo[4,5-c]quinolin-1-yl)methyl)pyridine-2-sulfonamide]	1.1	27										0	∞		
COc1ccc2ncc3ncn(Cc4ccc(S(N)(=O)=O)cc4)c3c2c1 [Compound 36, 4-((8-methoxy-1H-imidazo[4,5-c]quinolin-1-yl)methyl)benzenesulfonamide]	3.1	36	1500	66		5000	57	2000	48	0.55				49	28

Reference: patent publication US11673889B2, “Substituted imidazo[4,5-c][1,8]naphthyridines as phosphodiesterase inhibitors” (Nanjing Zhengxiang Pharmaceuticals Co., Ltd., priority 2019, dated 2023)
